Source: patent US20200262869A1, “PEPTIDE ANTIBIOTIC COMPLEXES AND METHODS OF USE THEREOF” (GENENTECH, INC., priority 2017, published 2020)
In brackets after ≈: the same amount, converted by molar mass. Where two headings read alike, the source gives them in different places.

Experiments:
C. werkmanii ATCC 51114 = test: MIC, broth microdilution; assay type: cell-based; details: Citrobacter werkmanii, ATCC51114, read-out: MIC
Description: (§1) Minimum Inhibitory Concentration (MIC). MICs were determined by performing two-fold serial dilutions of compound in Mueller Hinton II cation-adjusted broth to a final volume of 0.1 m1 in round-bottom 96-well assay plates (Corning Life Sciences No 3788). Each well was inoculated with 5×10^5 CFU/ml and incubated at 37° C. without agitation for 18 hours. Plates were scored by eye, and the lowest compound concentration preventing visible growth was determined to be the MIC.

[1] = test system: MDR K. pneumoniae CDC 0106; test: MIC against MDR clinical isolate; assay type: cell-based; details: Klebsiella pneumoniae; MDR K. pneumoniae CDC 0106; read-out: MIC
Description: as §1

[2] = test system: E. coli ATCC 25922 point mutants; test: MIC against spontaneous G0775-resistant point mutants; assay type: cell-based
Description: as §1
(§2) 20 independent colonies from each bacterial species were scraped and used to establish an overnight culture. Bacteria were concentrated by centrifugation, and approximately 3×10^9 CFUs were spread on cation adjusted Mueller Hinton agarose (MHA) plates containing G0775 at 2- to 8-times the MIC. The MHA plates were prepared from Mueller Hinton II cation adjusted broth (BBL™ 212322) and SeaKem LE Agarose (17 g/L; Lonza) as per manufactures instructions. Resistance frequency for each strain was calculated by dividing the number of colonies formed after a 48 hour incubation at 37° C. by the initial viable cell count.

E. coli ATCC 25922 [3] = test: Time-kill; assay type: cell-based; details: E. coli ATCC 25922, across a 24 hour period
From the text: FIG. 5. […] Colony forming units (CFU) per mL data shown is an average of at least three independent experiments with error bars representing the SD.

A. baumannii ATCC 17978 = test: Frequency of resistance (FOR); assay type: cell-based; details: G0775 at 8-fold the MIC; limit of detection 10^−10
Description: as §2

E. coli ATCC 25922 [4] = test: Frequency of resistance (FOR); assay type: cell-based; details: G0775 at 8-fold the MIC; limit of detection 10^−10
Description: as §2

K. pneumoniae 43816 = test: Frequency of resistance (FOR); assay type: cell-based; details: G0775 at 8-fold the MIC; limit of detection 10^−10
Description: as §2

P. aeruginosa PAO1 = test: Frequency of resistance (FOR); assay type: cell-based; details: further 2-fold increase over 8-fold the MIC (16-fold MIC)
Description: as §2

[5] = molecular target: T1, full length recombinant LepB from E. coli (Escherichia coli, UniProt P00803); test: LepB kinetic enzyme assay (fluorogenic peptide substrate); assay type: biochemical
T1 construct: 500 pM full length recombinant LepB from E. coli
Description: A 20 μL reaction in PBS (pH 7.4) containing 0.1% Triton X-100 was initiated by adding 500 pM full length recombinant LepB from E. coli to a 384-well polypropylene assay plate (Thermo Scientific) containing indicated concentration of G0775 and 10 uM fluorogenic peptide substrate Dabcyl-DAP-PAKAAE-Edans (SEQ ID NO: 6) (GL Biochem, Boston, Mass.). Substrate cleavage separates the Dabcyl quencher from the Edans fluorophore, resulting in 490 nm fluorescence (340 nm excitation). The reaction was read kinetically using a pherastar plate reader (BMG Labtech), and curves were fit to a 2-step irreversible binding model using Dynafit software (BioKin Ltd.) to determine Kinact/KI binding constants.

A. baumannii 17978 = test: Neutropenic thigh infection model in mice; assay type: in vivo; details: required a higher concentration of antibiotic; subcutaneous BID
Description: (§3) CD1 mice (Charles River Laboratories) were rendered neutropenic by 2 intraperitoneal injections of Cytoxan (Baxter Health Care Corporation) at 150 mg/kg on Day -5 and 100 mg/kg on Day -2. On day 0, 50 ul log-phase grown bacteria, K. pneumoniae (ATCC 43816) 1×10^5 CFU/mouse, E. coli (ATCC 25922) 1×10^5 CFU/mouse, P. aeruginosa (ATCC 27853) 1×10^6 CFU/mouse, or A. baumannii (ATCC 17978) 1×10^5 CFU/mouse, were injected into the mouse thigh muscle. At 2 and 11 hours post infection, […] was given at indicated dose subcutaneously. At 20 hours post infection, CFU was determined in the thigh muscle through serial dilutions.

[6] = test system: E. coli strain ATCC 25922; test: Neutropenic thigh infection model in mice; assay type: in vivo; details: 1 mg/kg subcutaneously BID at 2 and 11 h, 20 h post infection
Description: as §3

[7] = test system: K. pneumoniae strain ATCC 43816; test: Neutropenic thigh infection model in mice; assay type: in vivo; details: 5 mg/kg subcutaneously BID at 2 and 11 h, 20 h post infection
Description: as §3

P. aeruginosa 27853 = test: Neutropenic thigh infection model in mice; assay type: in vivo; details: required a higher concentration of antibiotic; subcutaneous BID
Description: as §3

K. pneumoniae (CDC 0106) = test: Neutropenic lung infection model in mice; assay type: in vivo; details: 20 h
Description: Balb/c mice (Jackson Laboratories) were rendered neutropenic by 2 intraperitoneal injections of Cytoxan (Baxter Health Care Corporation) at 150 mg/kg on Day −4 and 100 mg/kg on Day −1. On day 0, mice were infected intranasally with 40 ul log-phase grown K. pneumoniae (CDC 0106) at 1×10^6 CFU/mouse. At 2 and 11 hours post infection, G0775 was given at different doses subcutaneously. Ciprofloxacin (Claris Lifesciences Inc.) was dosed at 80 mg/kg subcutaneously once at 2 hour post infection. At 20 hours post infection, CFU was determined in the lung through serial dilutions.

[8] = test system: K. pneumoniae strain ATCC 43816; test: Mucin peritonitis survival study in mice; assay type: in vivo; details: 5 mg/kg BID subcutaneously on day of infection; out to 84 hours
Description: CD1 mice (Charles River Laboratories) were infected through intraperitoneal injection of 0.4 mL K. pneumoniae (ATCC 43816) at 3×10^5 CFU/mouse in 5% mucin (Sigma M1778). At 2 and 11 hours post infection, G0775 was given at the indicated dose subcutaneously. Ciprofloxacin (Claris Lifesciences Inc.) was dosed at 80 mg/kg subcutaneously once at 2 hour post infection. Mice were monitored for body conditioning and survival until 84 hours post infection.

## Cc1nc(-c2ccc(C(C)(C)C)cc2)ncc1C(=O)NC(CCN)C(=O)N(C)C1C(=O)NC(C)C(=O)NC(C(=O)NCC#N)Cc2ccc(OCCN)c(c2)-c2cc1ccc2OCCN (stereo not shown) [G0775]
C. werkmanii ATCC 51114
  MIC: 0.125 µg/mL (≈ 0.14 µM)
[1]
  MIC: 0.5 µg/mL (≈ 0.562 µM)
[2]; LepB mutation A297V
  Fold MIC Increase: 4 Fold
[2]; LepB mutation D143Y
  Fold MIC Increase: 8 Fold
[2]; LepB mutation E83K
  Fold MIC Increase: 16 Fold
[2]; LepB mutation F85S
  Fold MIC Increase: 8 Fold
[2]; LepB mutation L142R
  Fold MIC Increase: 8 Fold
[2]; LepB mutation P88L
  Fold MIC Increase: 16 Fold
[2]; LepB mutation P88Q
  Fold MIC Increase: 4 Fold
[2]; LepB mutation P88R
  Fold MIC Increase: 16 Fold
[2]; LepB mutation P88T
  Fold MIC Increase: 4 Fold
[2]; LepB mutation V133F
  Fold MIC Increase: 16 Fold
[2]; LepB mutation V149(VVGLP)
  Fold MIC Increase: 128 Fold
[2]; mutation AcrB (N282Y), off-target
  Fold MIC Increase: 4 Fold
[2]; resistant E. coli mutants
  reduction of susceptibility to G0775 by resistance mutations: 4- to 16 fold
E. coli ATCC 25922 [3]
  reduction of the number of viable bacteria (time-dependent killing): over 6 orders of magnitude
A. baumannii ATCC 17978
  frequency of resistance (FOR): below the limit of detection
E. coli ATCC 25922 [4]
  frequency of resistance (FOR): below the limit of detection
K. pneumoniae 43816
  frequency of resistance (FOR): below the limit of detection
P. aeruginosa PAO1
  frequency of resistance (FOR): < 10^−10
[5]; full-length LepB embedded in a detergent micelle
  kinact/KI: 1.59e+06 M⁻¹ s⁻¹
[5]; full-length LepB embedded in a detergent micelle, read-out: KI (prechemistry binding)
  Ki: 440 pM
[5]; read-out: kinact (irreversible inactivation)
  kinact: 0.0007 s⁻¹
[5]; three independent experiments, read-out: Kinact
  kinact: 0.0007 ± 0.0002 s⁻¹
A. baumannii 17978
  efficacy in neutropenic thigh model: efficacious
[6]
  decrease in CFU (bactericidal activity): > 2 log
[7]
  decrease in CFU (bactericidal activity): > 2 log
P. aeruginosa 27853
  efficacy in neutropenic thigh model: efficacious
K. pneumoniae (CDC 0106); 2 mg/kg subcutaneously BID
  antibacterial activity in lung infection model: bacteriostatic activity
K. pneumoniae (CDC 0106); 20 mg/kg subcutaneously BID
  antibacterial activity in lung infection model: bactericidal activity
[8]
  survival (animal viability): full animal viability
